Read-outs that look alike come from different tables or passages of the source.
Key:
human 5-HT4 receptor = human 5-HT4 receptor (Homo sapiens (Human), UniProt Q13639); experiment: Binding affinity of compounds for 5-HT4 receptor ([H3]-GR113808 radioligand, COS-7 membrane homogenates)
Description: The binding affinity of the compounds for a human 5-HT4 receptor was assayed according to the method as disclosed in the literature [Wyngaert et al., Journal of Neurochemistry, (1997) 69, 1810-1819]. For this purpose, COS-7 cells expressing the human 5-HT4 receptor were constructed and homogenized to obtain membrane homogenates which were then used in binding assay experiments. For the binding assay, the membrane homogenates were respectively mixed and incubated with different concentrations of test materials and [H3]-GR113808 (Amersham Biosciences). The concentrations of the individual test materials were set to 4 μM, 1 μM, 0.25 μM, and 0.0625 μM, respectively, and the concentration of [H3]-GR113808 was set to 0.595 nM. After the incubation was completed, the reaction products were collected in GF/B glass fiber filters using a Packard cell harvester, and the bound radioactivity was then determined using a liquid cell scintillation counter (Packard TopCount NXT™, Perkin Elmer). Specific binding of the radioligand to the 5-HT4 receptor was calculated by subtracting the non-specific binding of the radioligand from the total radioligand binding. IC50 was calculated from % inhibition of specific binding of the radioligand to the 5-HT4 receptor, with respect to varying concentrations of the test materials.

SD rats = experiment: Evaluation of gastric emptying; format: in vivo, rat; details: 5 mg/kg oral, semi-solid diet 1 hour after dosing, stomach extracted 50 minutes after meal
Description: Evaluation of gastric emptying was carried out based on the method described in Iwanaga Y, et al., Jpn J Pharmacol. 1991, 56(3), 261-269. As experimental animals, SD rats (240 to 250 g) were used and divided into groups (n=5 to 6). On the day prior to the experiment, animals were fasted for 18 hours. Test materials were formulated as suspensions thereof in 0.5% (w/v) methylcellulose and were orally administered to the animals at a dose of 5 mg/kg. 1 hour after the oral administration of the test materials, 2 mL of a semi-solid diet was orally administered to the animals. The semi-solid diet was in the form of porridge formulated by pulverizing a standard solid diet together with distilled water in a mixer. 50 minutes after the administration of the semi-solid diet, the animals were sacrificed by cervical dislocation. After carrying out an abdominal incision, the stomach was extracted from the animals. The weight of diet remaining in the stomach was measured to thereby determine the gastric emptying rate (%). The gastric emptying rate was calculated according to the following equation.
Gastric Emptying Rate (%)=(1−X/Y)*100
X: Weight of diet remaining in the stomach extracted 50 minutes after administration of meal
Y: Weight of diet remaining in the stomach extracted immediately after administration of meal

ICR mice = experiment: Acute oral toxicity of compounds in mice; format: in vivo; details: male ICR mice, single oral dose 1 g/10 mL/kg, 2 weeks observation
Description: 200 mg of each of Example compounds was triturated in 1% hydroxypropyl methyl-cellulose, and the resulting triturations were then orally administered to 5-week old male ICR mice (20 g±2 g, n=5) at a dose of 1 g/10 mL/kg. The minimum lethal dose (MLD, mg/kg) of the individual compounds was investigated by the observation of the mortality, body weight, clinical symptoms and the like of animals over the entire experimental period of 2 weeks.

hERG potassium channel = hERG potassium channel (Homo sapiens (Human), UniProt Q12809); experiment: Binding affinity for hERG potassium channel ([H3]-Astemizole radioligand, HEK-293 membrane homogenates, MDS Pharma Service); details: probe [H3]-Astemizole (1.5 nM), 10 μM test material, 1.5 nM [H3]-Astemizole, hERG K+ channel, HEK-293 membranes
hERG potassium channel, sequence (Q12809 whole entry): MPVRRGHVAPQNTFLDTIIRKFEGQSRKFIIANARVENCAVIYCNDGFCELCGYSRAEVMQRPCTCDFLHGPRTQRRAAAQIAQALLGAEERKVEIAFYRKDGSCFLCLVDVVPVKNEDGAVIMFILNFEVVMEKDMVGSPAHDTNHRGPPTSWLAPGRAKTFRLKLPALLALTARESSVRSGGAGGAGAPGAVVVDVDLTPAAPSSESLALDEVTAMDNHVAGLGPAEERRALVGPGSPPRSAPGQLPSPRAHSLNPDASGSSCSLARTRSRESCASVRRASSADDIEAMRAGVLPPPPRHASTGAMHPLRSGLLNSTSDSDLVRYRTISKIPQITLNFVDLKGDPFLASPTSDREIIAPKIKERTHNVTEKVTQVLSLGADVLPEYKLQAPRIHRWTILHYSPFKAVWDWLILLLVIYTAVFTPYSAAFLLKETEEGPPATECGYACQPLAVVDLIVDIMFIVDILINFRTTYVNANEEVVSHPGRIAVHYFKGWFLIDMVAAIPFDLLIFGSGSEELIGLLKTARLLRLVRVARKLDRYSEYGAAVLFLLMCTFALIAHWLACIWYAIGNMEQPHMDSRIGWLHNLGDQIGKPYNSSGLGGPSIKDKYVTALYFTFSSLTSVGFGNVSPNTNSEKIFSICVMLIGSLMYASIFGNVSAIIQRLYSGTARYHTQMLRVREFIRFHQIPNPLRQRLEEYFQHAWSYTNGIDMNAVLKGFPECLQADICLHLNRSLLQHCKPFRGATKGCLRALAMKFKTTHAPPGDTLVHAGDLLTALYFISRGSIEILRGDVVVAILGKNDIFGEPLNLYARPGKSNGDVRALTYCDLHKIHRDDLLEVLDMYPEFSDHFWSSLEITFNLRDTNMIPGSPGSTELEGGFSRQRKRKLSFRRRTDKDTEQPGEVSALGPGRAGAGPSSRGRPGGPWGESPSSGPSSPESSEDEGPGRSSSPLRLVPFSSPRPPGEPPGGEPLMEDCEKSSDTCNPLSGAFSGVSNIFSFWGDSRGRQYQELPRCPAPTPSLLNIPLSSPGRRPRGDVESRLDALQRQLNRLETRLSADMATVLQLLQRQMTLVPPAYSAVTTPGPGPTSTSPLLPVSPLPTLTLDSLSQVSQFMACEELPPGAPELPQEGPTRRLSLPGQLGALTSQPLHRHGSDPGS
Description: The binding affinity of the compounds for the human ether-a-go-go-related gene (hERG) potassium (K+) channel which is associated with cardiac QT prolongation was assayed in MDS Pharma Service (Catalog No. 265900). Membrane homogenates were obtained from mammalian HEK-293 cells expressing the hERG potassium channel and then used in the binding assay experiment. For the binding assay experiment, the membrane homogenates were respectively mixed and incubated with 10 μM of test materials and 1.5 nM of [H3]-Astemizole (Perkin Elmer). After the incubation was completed, the radioactivity bound to the hERG K+ channel was counted. The affinity of each test material for the hERG K+ channel was calculated from % inhibition of specific binding of the radioligand to the hERG K+ channel, resulting from the action of the test material.

[1] = inhibition of specific binding of 0.595 nM [H3]-GR113808 to human 5-HT4 receptor, COS-7 membranes, read-out: IC50

human 5-HT4 receptor, sequence (Q13639 whole entry): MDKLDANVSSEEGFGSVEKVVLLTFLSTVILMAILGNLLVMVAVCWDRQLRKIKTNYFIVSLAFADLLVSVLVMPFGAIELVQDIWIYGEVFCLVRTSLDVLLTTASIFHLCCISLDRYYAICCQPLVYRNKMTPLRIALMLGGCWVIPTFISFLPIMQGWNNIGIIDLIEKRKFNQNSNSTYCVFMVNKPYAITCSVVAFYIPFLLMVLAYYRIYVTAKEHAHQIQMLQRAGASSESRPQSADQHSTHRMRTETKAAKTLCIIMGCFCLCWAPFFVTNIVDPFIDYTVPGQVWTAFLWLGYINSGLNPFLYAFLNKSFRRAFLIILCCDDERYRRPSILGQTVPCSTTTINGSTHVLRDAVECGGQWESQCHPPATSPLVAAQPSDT

Row | SMILES | IC50 (human 5-HT4 receptor; [1]) | Gastric emptying rate (SD rats) | Minimum lethal dose (MLD) (ICR mice) | inhibition at 10 μM (hERG potassium channel) | IC50 (human 5-HT4 receptor)
1 | COc1cc(N)c(Cl)cc1C(=O)NCC1CCN(CCCn2nccn2)CC1 [Example 8, N-((1-(3-(1,2,3-triazol-2-yl)propyl)piperidin-4-yl)methyl)-4-amino-5-chloro-2-methoxybenzamide] | 0.182 nM | 49.1% | >1000 mg/kg | 15% | 
2 | COc1cc(N)c(Cl)cc1C(=O)NCC1CCN(CCCCCn2ccc3ccccc32)CC1 [Example 5, N-((1-(5-(indol-1-yl)pentyl)piperidin-4-yl)methyl)-4-amino-5-chloro-2-methoxybenzamide] | 0.005 nM | 52.0% | >1000 mg/kg |  | 
3 | COc1cc(N)c(Cl)cc1C(=O)NCC1CCN(CCCn2ccnn2)CC1 [Example 7, N-((1-(3-(1,2,3-triazol-1-yl)propyl)piperidin-4-yl)methyl)-4-amino-5-chloro-2-methoxybenzamide] | 0.067 nM | 56.1% | >1000 mg/kg | 7% | 
4 | COc1cc(N)c(Cl)cc1C(=O)NCC1CCN(Cc2ccc(F)cc2)CC1 [Example 13, N-((1-(4-fluorobenzyl)piperidin-4-yl)methyl)-4-amino-5-chloro-2-methoxybenzamide] | 0.134 nM | 52.3% | >1000 mg/kg | 52% | 
5 | COc1cc(N)c(Cl)cc1C(=O)NCC1CCN(CCCCCn2ccnn2)CC1 [Example 6, N-((1-(5-(1,2,3-triazol-1-yl)pentyl)piperidin-4-yl)methyl)-4-amino-5-chloro-2-methoxybenzamide] | 0.103 nM | 46.0% | >1000 mg/kg | 8% | 
6 | COc1cc(N)c(Cl)cc1C(=O)NCC1CCN(Cc2cccnc2)CC1 [Example 9, N-((1-(pyridin-3-ylmethyl)piperidin-4-yl)methyl)-4-amino-5-chloro-2-methoxybenzamide] | 0.267 nM | 51.2% | >1000 mg/kg | 6% | 
7 | COc1cc(N)c(Cl)cc1C(=O)NCC1CCN(Cc2cccn2C)CC1 [Example 12, N-((1-((1-methylpyrrol-2-yl)methyl)piperidin-4-yl)methyl)-4-amino-5-chloro-2-methoxybenzamide] | 0.421 nM | 62.0% | >1000 mg/kg | 32% | 
8 | COc1cc(N)c(Cl)cc1C(=O)NCC1CCN(CCCn2ccnc2C)CC1 [Example 4, N-((1-(3-(2-methylimidazol-1-yl)propyl)piperidin-4-yl)methyl)-4-amino-5-chloro-2-methoxybenzamide] | 0.229 nM | 46.4% | >1000 mg/kg | 14% | 
9 | COc1cc(N)c(Cl)cc1C(=O)NCC1CCN(Cc2cn(C)c3ccccc23)CC1 [Example 10, N-((1-((1-methylindol-3-yl)methyl)piperidin-4-yl)methyl)-4-amino-5-chloro-2-methoxybenzamide] | 0.076 nM | 59.1% | >1000 mg/kg |  | 
10 | COc1cc(N)c(Cl)cc1C(=O)NCC1CCN(CCCn2cnnn2)CC1 [Example 2, N-((1-(3-(tetrazol-1-yl)propyl)piperidin-4-yl)methyl)-4-amino-5-chloro-2-methoxybenzamide] | 0.164 nM | 52.8% | >1000 mg/kg | 4% | 
11 | COc1cc(N)c(Cl)cc1C(=O)NCC1CCN(CCCn2cncn2)CC1 [Example 1, N-((1-(3-(1,2,4-triazol-1-yl)propyl)piperidin-4-yl)methyl)-4-amino-5-chloro-2-methoxybenzamide] | 0.226 nM | 43.0% | >1000 mg/kg | 1% | 
12 | COc1cc(N)c(Cl)cc1C(=O)NCC1CCN(Cc2ccc(O)cc2)CC1 [Example 14, N-((1-(4-hydroxybenzyl)piperidin-4-yl)methyl)-4-amino-5-chloro-2-methoxybenzamide] | 0.375 nM | 42.1% | >1000 mg/kg | 40% | 
13 | COc1cc(N)c(Cl)cc1C(=O)NCC1CCN(Cc2ncc[nH]2)CC1 [Example 11, N-((1-(imidazol-2-ylmethyl)piperidin-4-yl)methyl)-4-amino-5-chloro-2-methoxybenzamide] | 0.454 nM | 43.1% | >1000 mg/kg | 21% | 
14 | COc1cc(N)c(Cl)cc1C(=O)NCC1CCN(CCc2c[nH]c3ccccc23)CC1 [Example 15, N-((1-(2-(indol-3-yl)ethyl)piperidin-4-yl)methyl)-4-amino-5-chloro-2-methoxybenzamide] |  | 41.3% | >1000 mg/kg |  | 0.002 nM
15 | COc1cc(N)c(Cl)cc1C(=O)NCC1CCN(CCCn2ccc3ccccc32)CC1 [Example 3, N-((1-(3-(indol-1-yl)propyl)piperidin-4-yl)methyl)-4-amino-5-chloro-2-methoxybenzamide] | 0.039 nM | 45.2% | >1000 mg/kg |  | 
